Measurements: ChEMBL document CHEMBL3352260, “Identification and development of biphenyl substituted iminosugars as improved dual glucosylceramide synthase/neutral glucosylceramidase inhibitors” (J Med Chem, 2014)

What was measured:
[1] = molecular target: T1, Lysosomal acid glucosylceramidase (Homo sapiens, UniProt P04062)
T1 sequence (P04062 whole entry): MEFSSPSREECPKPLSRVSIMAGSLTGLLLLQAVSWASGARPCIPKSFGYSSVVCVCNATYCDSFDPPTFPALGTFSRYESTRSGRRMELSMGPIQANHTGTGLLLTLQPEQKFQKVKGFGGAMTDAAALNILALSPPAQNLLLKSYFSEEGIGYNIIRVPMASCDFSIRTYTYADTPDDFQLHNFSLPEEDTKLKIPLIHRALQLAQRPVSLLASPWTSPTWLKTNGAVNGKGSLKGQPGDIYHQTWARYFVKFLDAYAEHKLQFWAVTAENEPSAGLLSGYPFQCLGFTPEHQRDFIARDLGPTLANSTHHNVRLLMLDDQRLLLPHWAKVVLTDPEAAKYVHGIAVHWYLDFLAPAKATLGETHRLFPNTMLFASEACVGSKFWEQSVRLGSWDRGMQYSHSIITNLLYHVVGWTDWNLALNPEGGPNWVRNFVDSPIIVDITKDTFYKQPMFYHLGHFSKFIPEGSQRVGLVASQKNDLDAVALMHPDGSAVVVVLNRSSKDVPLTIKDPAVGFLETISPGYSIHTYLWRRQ

[2] = molecular target: T2, Beta-glucosidase (Homo sapiens, UniProt Q9HCG7)
T2 sequence (Q9HCG7 whole entry): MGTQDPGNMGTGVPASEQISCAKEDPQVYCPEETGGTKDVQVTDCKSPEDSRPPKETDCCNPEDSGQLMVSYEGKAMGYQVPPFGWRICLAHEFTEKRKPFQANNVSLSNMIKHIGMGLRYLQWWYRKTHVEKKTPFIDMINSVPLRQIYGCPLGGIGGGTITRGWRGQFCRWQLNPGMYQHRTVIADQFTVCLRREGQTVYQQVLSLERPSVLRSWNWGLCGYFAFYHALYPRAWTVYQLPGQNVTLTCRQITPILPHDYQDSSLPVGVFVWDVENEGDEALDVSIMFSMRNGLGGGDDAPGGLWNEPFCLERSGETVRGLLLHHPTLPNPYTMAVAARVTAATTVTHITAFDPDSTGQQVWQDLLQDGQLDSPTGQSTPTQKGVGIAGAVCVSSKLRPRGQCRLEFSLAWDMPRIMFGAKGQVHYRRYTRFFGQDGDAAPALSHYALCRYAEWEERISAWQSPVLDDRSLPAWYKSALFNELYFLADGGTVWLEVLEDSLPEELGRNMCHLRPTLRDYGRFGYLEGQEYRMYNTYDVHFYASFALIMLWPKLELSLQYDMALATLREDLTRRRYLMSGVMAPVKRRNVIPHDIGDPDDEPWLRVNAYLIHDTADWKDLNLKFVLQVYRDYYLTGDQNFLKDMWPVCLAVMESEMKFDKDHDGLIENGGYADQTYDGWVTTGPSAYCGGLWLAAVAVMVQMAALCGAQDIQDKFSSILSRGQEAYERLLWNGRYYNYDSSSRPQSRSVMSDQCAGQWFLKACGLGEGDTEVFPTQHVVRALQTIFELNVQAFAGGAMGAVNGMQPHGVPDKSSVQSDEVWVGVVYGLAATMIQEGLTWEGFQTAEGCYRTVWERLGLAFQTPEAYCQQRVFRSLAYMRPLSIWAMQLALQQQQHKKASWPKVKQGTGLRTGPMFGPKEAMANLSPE

[3] = molecular target: T3, Ceramide glucosyltransferase (Homo sapiens, UniProt Q16739)
T3 sequence (Q16739 whole entry): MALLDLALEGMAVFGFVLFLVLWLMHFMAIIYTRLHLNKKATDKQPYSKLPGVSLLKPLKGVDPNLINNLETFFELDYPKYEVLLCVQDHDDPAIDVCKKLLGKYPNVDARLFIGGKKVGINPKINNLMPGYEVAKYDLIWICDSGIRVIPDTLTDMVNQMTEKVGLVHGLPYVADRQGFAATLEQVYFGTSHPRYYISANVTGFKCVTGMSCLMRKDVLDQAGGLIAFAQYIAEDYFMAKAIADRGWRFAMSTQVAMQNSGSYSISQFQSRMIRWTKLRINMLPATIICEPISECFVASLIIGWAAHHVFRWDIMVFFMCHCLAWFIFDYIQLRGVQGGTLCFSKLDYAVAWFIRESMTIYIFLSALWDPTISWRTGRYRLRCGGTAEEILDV

[4] = molecular target: Maltase-glucoamylase (Homo sapiens, UniProt O43451); assay: Inhibition of intestinal maltase (unknown origin)
Chain of Maltase-glucoamylase (O43451 whole entry): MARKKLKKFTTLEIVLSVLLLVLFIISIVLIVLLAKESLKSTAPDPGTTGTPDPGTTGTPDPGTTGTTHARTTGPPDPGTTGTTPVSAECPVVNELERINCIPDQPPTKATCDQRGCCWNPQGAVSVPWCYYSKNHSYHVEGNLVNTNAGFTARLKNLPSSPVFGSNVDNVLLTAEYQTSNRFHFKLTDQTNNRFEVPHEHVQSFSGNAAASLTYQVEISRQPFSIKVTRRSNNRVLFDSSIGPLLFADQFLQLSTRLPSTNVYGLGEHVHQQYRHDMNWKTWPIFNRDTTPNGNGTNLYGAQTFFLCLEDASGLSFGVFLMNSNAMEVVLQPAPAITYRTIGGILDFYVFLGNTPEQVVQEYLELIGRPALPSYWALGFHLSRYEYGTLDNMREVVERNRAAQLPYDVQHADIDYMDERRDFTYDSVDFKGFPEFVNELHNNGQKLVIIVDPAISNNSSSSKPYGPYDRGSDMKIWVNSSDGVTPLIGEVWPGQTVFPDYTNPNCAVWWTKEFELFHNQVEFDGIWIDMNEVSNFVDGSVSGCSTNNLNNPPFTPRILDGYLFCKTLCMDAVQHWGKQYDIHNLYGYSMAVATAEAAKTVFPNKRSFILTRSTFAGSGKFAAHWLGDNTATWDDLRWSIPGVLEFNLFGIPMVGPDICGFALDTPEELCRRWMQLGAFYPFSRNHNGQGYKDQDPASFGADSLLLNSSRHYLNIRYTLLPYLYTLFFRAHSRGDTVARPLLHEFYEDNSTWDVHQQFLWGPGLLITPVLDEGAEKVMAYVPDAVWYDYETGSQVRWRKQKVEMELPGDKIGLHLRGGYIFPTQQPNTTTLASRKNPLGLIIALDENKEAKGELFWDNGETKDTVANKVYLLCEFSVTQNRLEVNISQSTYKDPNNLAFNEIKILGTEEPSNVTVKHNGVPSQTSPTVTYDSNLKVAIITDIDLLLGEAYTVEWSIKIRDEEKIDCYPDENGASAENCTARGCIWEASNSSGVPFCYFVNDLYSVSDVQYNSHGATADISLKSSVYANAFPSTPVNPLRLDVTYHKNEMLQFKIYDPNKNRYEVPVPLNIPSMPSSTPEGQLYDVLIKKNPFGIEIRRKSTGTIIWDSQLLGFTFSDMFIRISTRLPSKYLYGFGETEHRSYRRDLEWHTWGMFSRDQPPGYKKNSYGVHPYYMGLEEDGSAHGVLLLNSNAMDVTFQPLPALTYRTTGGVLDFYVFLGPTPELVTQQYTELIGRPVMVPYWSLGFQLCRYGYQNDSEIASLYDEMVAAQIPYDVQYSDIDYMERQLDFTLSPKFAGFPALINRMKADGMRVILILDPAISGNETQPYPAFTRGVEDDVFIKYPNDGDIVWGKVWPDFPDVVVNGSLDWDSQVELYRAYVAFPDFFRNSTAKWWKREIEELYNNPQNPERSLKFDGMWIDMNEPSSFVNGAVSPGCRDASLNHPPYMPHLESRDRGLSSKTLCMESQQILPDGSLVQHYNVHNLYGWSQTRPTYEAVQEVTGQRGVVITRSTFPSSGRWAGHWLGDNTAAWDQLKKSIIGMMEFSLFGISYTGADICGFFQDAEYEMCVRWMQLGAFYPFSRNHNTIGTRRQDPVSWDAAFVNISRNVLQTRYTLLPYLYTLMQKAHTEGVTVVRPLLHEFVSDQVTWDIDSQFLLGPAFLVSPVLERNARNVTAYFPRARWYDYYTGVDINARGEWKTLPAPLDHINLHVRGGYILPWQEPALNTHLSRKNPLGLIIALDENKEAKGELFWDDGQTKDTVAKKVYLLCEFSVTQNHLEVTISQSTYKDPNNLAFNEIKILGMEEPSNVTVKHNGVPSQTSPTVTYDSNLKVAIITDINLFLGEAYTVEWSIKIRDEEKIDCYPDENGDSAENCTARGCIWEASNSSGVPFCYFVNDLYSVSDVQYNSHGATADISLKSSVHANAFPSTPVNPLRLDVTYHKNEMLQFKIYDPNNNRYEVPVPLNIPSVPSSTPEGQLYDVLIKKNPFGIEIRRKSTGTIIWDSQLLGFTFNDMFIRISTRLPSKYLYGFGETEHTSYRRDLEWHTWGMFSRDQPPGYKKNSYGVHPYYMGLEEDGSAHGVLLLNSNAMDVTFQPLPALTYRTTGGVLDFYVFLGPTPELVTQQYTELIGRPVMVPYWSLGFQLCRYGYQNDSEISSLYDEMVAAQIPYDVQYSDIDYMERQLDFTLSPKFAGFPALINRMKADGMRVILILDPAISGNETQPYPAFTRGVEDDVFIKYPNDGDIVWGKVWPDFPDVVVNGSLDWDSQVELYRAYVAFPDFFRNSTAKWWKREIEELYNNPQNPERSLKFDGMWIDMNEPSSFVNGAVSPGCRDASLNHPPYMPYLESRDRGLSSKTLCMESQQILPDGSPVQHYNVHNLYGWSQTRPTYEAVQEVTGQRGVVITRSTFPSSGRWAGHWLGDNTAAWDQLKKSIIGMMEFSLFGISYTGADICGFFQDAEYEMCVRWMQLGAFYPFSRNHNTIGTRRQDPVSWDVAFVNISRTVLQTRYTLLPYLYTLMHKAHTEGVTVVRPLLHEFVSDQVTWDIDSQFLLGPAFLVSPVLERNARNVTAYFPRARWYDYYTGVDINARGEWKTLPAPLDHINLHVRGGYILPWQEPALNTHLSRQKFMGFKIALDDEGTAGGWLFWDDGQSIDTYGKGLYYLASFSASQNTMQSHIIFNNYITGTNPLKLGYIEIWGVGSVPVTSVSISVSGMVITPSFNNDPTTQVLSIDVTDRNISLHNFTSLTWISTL

[5] = molecular target: Lactase/phlorizin hydrolase (Homo sapiens, UniProt P09848); assay: Inhibition of intestinal lactase (unknown origin)
Chain of Lactase/phlorizin hydrolase (P09848 869-1927 limits assumed): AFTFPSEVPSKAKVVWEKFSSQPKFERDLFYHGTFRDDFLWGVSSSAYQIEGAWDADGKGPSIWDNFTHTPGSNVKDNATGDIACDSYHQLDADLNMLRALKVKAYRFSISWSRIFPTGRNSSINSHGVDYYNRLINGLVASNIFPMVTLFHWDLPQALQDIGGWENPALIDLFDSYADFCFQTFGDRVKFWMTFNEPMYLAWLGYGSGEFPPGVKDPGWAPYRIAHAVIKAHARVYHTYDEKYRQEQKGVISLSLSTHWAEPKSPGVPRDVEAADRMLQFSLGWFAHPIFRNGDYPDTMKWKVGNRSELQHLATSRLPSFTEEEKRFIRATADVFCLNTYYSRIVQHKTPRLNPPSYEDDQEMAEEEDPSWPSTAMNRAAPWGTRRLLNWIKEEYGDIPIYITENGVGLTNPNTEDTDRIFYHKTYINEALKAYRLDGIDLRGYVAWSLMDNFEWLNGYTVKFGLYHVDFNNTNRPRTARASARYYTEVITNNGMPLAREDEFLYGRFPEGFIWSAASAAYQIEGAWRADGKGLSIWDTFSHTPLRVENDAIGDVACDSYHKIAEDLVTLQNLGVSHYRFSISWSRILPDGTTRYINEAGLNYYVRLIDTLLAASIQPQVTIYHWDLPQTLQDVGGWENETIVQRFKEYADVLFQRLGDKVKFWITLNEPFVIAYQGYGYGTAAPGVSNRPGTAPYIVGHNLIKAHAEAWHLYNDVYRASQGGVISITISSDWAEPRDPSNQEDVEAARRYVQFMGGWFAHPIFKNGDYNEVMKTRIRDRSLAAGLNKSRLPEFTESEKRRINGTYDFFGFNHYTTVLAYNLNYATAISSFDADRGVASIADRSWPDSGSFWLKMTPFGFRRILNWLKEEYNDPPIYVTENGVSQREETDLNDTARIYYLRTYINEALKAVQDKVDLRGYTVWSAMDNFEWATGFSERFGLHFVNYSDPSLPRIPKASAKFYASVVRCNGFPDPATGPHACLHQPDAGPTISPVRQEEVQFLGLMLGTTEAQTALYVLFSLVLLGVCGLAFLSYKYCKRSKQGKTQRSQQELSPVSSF

[6] = molecular target: Sucrase-isomaltase, intestinal (Homo sapiens, UniProt P14410); assay: Inhibition of intestinal sucrase (unknown origin)

SMILES | IC50 [1] [nM] | IC50 [2] [nM] | IC50 [3] [nM] | IC50 [4] [nM] | IC50 [5] [nM] | IC50 [6] [nM]
OC[C@@H]1[C@@H](O)[C@H](O)[C@@H](O)CN1CCCCCOCc1ccc(-c2ccc3c(c2)OCO3)cc1 | 500 | 2 |  |  |  | 
O=C(CCCCCN1C[C@H](O)[C@@H](O)[C@H](O)[C@@H]1CO)NC12CC3CC(CC(C3)C1)C2 | 40000 | 15 | 400 |  |  | 
OC[C@H]1[C@@H](O)[C@H](O)[C@@H](O)CN1CCCCCOCc1ccc(-c2ccccc2)c(C(F)(F)F)c1 |  |  |  | > 100000 | 100000 | > 100000
OC[C@H]1[C@@H](O)[C@H](O)[C@@H](O)CN1CCCCCOCc1ccc(-c2ccccc2)c(F)c1 [NIZUBAGLUSTAT] |  |  |  | > 100000 | 50000 | > 100000
OC[C@@H]1[C@@H](O)[C@H](O)[C@@H](O)CN1CCCCCOCc1ccccc1-c1ccccc1 |  |  |  | 1500 | 17000 | 200
OC[C@@H]1[C@@H](O)[C@H](O)[C@@H](O)CN1CCCCCOCc1ccc(-c2cncnc2)cc1 | 10000 | 25 | 2000 |  |  | 
OC[C@@H]1[C@@H](O)[C@H](O)[C@@H](O)CN1CCCCCOCc1ccccc1 | 300 | 1 | 750 |  |  | 
OC[C@@H]1[C@@H](O)[C@H](O)[C@@H](O)CN1CCCCCCOCC12CC3CC(CC(C3)C1)C2 | 200 | 2 | 300 |  |  | 
OC[C@@H]1[C@@H](O)[C@H](O)[C@@H](O)CN1CCCCCOCc1ccc(-c2ccccc2)c(F)c1 |  | 0.08 |  | 3000 | 20000 | 400
O=C(CCCCCN1C[C@H](O)[C@@H](O)[C@H](O)[C@H]1CO)NC12CC3CC(CC(C3)C1)C2 | 500 | 9 | 1000 |  |  | 
C[C@H](OCCCCCN1C[C@H](O)[C@@H](O)[C@H](O)[C@@H]1CO)c1ccc(-c2ccccc2)cc1 |  |  |  | > 100000 | > 100000 | > 100000
OC[C@@H]1[C@@H](O)[C@H](O)[C@@H](O)CN1CCCCCOCc1ccc(-c2ccccc2)cc1C(F)(F)F |  |  |  | 8000 | 50000 | 1500
CC(C)CCC[C@@H](C)[C@H]1CC[C@H]2[C@@H]3CC=C4C[C@@H](OCCCCCN5C[C@H](O)[C@@H](O)[C@H](O)[C@H]5CO)CC[C@]4(C)[C@H]3CC[C@]12C | 500 | 5 | 1000 |  |  | 
OC[C@H]1[C@@H](O)[C@H](O)[C@@H](O)CN1CCCCCOCc1ccc2ccccc2c1 | 50000 | 1 | 3 |  |  | 
OC[C@@H]1[C@@H](O)[C@H](O)[C@@H](O)CN1CCCCCOCc1ccc(-c2cccnc2)cc1 |  |  | 2000 |  |  | 
OC[C@H]1[C@@H](O)[C@H](O)[C@@H](O)CN1CCCC(F)(F)COCc1ccc(-c2ccccc2)cc1 |  |  |  | > 100000 | 80000 | > 100000
OC[C@@H]1[C@@H](O)[C@H](O)[C@@H](O)CN1CCCCCOCc1ccc(-c2ccc3c(c2)OCCCO3)cc1 |  | 15 |  |  |  | 
CC(C)=CCC/C(C)=C/CC/C(C)=C/CCOCCCCCN1C[C@H](O)[C@@H](O)[C@H](O)[C@@H]1CO | 50000 | 100 | 2500 |  |  | 
OC[C@@H]1[C@@H](O)[C@H](O)[C@@H](O)CN1CCCCCOCc1ccc(-c2ccccc2)c(C(F)(F)F)c1 |  | 0.08 |  | 7000 | 45000 | 1250
OC[C@H]1[C@@H](O)[C@H](O)[C@@H](O)CN1CCCCCOCc1ccccc1 | 10000 | 3 | 200 |  |  | 
OC[C@H]1[C@@H](O)[C@H](O)[C@@H](O)CN1CCCCCOCc1ccc(-c2ccccc2)cc1 |  |  |  | > 100000 |  | 70000
